Results reported in patent US11608335B2, “Somatostatin modulators and uses thereof” (CRINETICS PHARMACEUTICALS, INC., priority 2018, dated 2023).

What follows are compounds tested against human somatostatin receptor subtype 5 (Homo sapiens, UniProt P35346) (assay: cAMP assay for SST5R (inhibition of cAMP via human SST5 receptor)). Conditions: not given.
Sequence of human somatostatin receptor subtype 5 (P35346 whole entry): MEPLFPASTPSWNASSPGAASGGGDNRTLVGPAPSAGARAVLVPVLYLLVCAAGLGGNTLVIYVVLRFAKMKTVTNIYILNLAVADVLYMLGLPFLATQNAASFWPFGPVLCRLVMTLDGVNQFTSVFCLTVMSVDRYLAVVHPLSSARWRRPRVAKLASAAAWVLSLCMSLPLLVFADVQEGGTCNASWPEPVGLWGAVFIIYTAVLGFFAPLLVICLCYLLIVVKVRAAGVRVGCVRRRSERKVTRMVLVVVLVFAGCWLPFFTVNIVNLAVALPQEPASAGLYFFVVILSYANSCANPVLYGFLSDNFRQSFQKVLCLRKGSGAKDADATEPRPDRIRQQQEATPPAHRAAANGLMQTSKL

First: Cc1c(Cl)cccc1-c1cncc(-c2nc3cc(F)cc(F)c3[nH]2)c1N1CC(CN)C1 [Compound 1-66, 1-{1-[3-(3-chloro-2-methylphenyl)-5-(4,6-difluoro-1H-1,3-benzodiazol-2-yl)pyridin-4-yl]azetidin-3-yl}methanamine]
Second: Cc1cccc(-c2cncc(-c3nc4cc(F)cc(F)c4[nH]3)c2N2CC(CN)C2)c1F [Compound 1-67, 1-{1-[3-(4,6-difluoro-1H-1,3-benzodiazol-2-yl)-5-(2-fluoro-3-methylphenyl)pyridin-4-yl]azetidin-3-yl}methanamine]
The EC50 of the first is lower: 10 to 100 nM for the first, 100 to 1000 nM for the second. The first is the more potent here.

First: CCOc1ccc(-c2cncc(-c3nc4c(F)cc(F)cc4[nH]3)c2N2CC(C(C)N)C2)cc1F (stereo not drawn) [Compound 1-72, 1-{1-[3-(4,6-difluoro-1H-1,3-benzodiazol-2-yl)-5-(4-ethoxy-3-fluorophenyl)pyridin-4-yl]azetidin-3-yl}ethan-1-amine]
Second: COc1c(F)cccc1-c1cncc(-c2nc3cc(F)cc(F)c3[nH]2)c1N1CC(C(C)N)C1 (stereo not drawn) [Compound 1-73, 1-{1-[3-(4,6-difluoro-1H-1,3-benzodiazol-2-yl)-5-(3-fluoro-2-methoxyphenyl)pyridin-4-yl]azetidin-3-yl}ethan-1-amine]
The EC50 of the first is higher: 10 to 100 nM for the first, less than 10 nM for the second.

Compared with `CC(N)C1CN(c2c(-c3nc4cc(F)cc(F)c4[nH]3)cncc2-c2cccc(F)c2Cl)C1` (stereo not drawn) [Compound 1-74, 1-{1-[3-(2-chloro-3-fluorophenyl)-5-(4,6-difluoro-1H-1,3-benzodiazol-2-yl)pyridin-4-yl]azetidin-3-yl}ethan-1-amine], `CC(N)C1CN(c2c(-c3nc4cc(F)cc(F)c4[nH]3)cncc2-c2cccc(F)c2O)C1` (stereo not drawn) [Compound 1-75, 2-{4-[3-(1-aminoethyl)azetidin-1-yl]-5-(4,6-difluoro-1H-1,3-benzodiazol-2-yl)pyridin-3-yl}-6-fluorophenol] is higher in EC50: less than 10 nM for the first, 10 to 100 nM for the second.

`Cc1cccc(-c2cncc(-c3nc4cc(F)cc(F)c4[nH]3)c2N2CC(C(C)N)C2)c1F` (stereo not drawn) [Compound 1-76, 1-{1-[3-(4,6-difluoro-1H-1,3-benzodiazol-2-yl)-5-(2-fluoro-3-methylphenyl)pyridin-4-yl]azetidin-3-yl}ethan-1-amine] and `N#Cc1c(F)ccc(-c2cncc(-c3nc4cccc(F)c4[nH]3)c2N2CC[C@H](N)C2)c1F` [Compound 2-32, 3-{4-[(3S)-3-aminopyrrolidin-1-yl]-5-(4-fluoro-1H-1,3-benzodiazol-2-yl)pyridin-3-yl}-2,6-difluorobenzonitrile] cannot be ordered by EC50: less than 10 nM for the first, less than 10 nM for the second.

First: N#Cc1cc(Cl)cc(-c2cncc(-c3nc4cccc(F)c4[nH]3)c2N2CC[C@H](N)C2)c1 [Compound 2-5, 3-{4-[(3S)-3-aminopyrrolidin-1-yl]-5-(4-fluoro-1H-1,3-benzodiazol-2-yl)pyridin-3-yl}-5-chlorobenzonitrile]
Second: N#Cc1ccc(-c2cncc(-c3nc4cccc(F)c4[nH]3)c2N2CC[C@H](N)C2)cc1 [Compound 2-42, 4-{4-[(3S)-3-aminopyrrolidin-1-yl]-5-(4-fluoro-1H-1,3-benzodiazol-2-yl)pyridin-3-yl}benzonitrile]
The EC50 of the first is lower: 10 to 100 nM for the first, 100 to 1000 nM for the second.

`CON=Cc1cc(F)cc(-c2cncc(-c3nc4c(F)cccc4[nH]3)c2N2CC[C@H](N)C2)c1` [Compound 2-9, (3S)-1-[3-(4-fluoro-1H-1,3-benzodiazol-2-yl)-5-{3-fluoro-5-[(methoxyimino)methyl]phenyl}pyridin-4-yl]pyrrolidin-3-amine] and `CO/N=C/c1cccc(-c2cncc(-c3nc4cccc(F)c4[nH]3)c2N2CC[C@H](N)C2)c1` [Compound 2-12, (3S)-1-[3-(4-fluoro-1H-1,3-benzodiazol-2-yl)-5-{3-[(methoxyimino)methyl]phenyl}pyridin-4-yl]pyrrolidin-3-amine] fall in the same range of EC50: 10 to 100 nM for the first, 10 to 100 nM for the second.

`CN(C)c1ccc(-c2cncc(-c3nc4cccc(F)c4[nH]3)c2N2CCC(C)(N)C2)cn1` (stereo not drawn) [Compound 2-14, 4′-(3-amino-3-methylpyrrolidin-1-yl)-5′-(4-fluoro-1H-1,3-benzodiazol-2-yl)-N,N-dimethyl-[3,3′-bipyridin]-6-amine] and `CN(C)C(=O)c1cccc(-c2cncc(-c3nc4cccc(F)c4[nH]3)c2N2CCC(C)(N)C2)c1` (stereo not drawn) [Compound 2-31, 3-[4-(3-amino-3-methylpyrrolidin-1-yl)-5-(4-fluoro-1H-1,3-benzodiazol-2-yl)pyridin-3-yl]-N,N-dimethylbenzamide] fall in the same range of EC50: 100 to 1000 nM for the first, 100 to 1000 nM for the second.

Compared with `CC1(N)CCN(c2c(-c3ccnc(N)c3)cncc2-c2nc3cccc(F)c3[nH]2)C1` (stereo not drawn) [Compound 2-15, 4-(3-amino-3-methylpyrrolidin-1-yl)-5-(4-fluoro-1H-1,3-benzodiazol-2-yl)-[3,4′-bipyridin]-2′-amine], `CC1(N)CCN(c2c(-c3ccc4[nH]ccc4c3)cncc2-c2nc3cccc(F)c3[nH]2)C1` (stereo not drawn) [Compound 2-30, 1-[3-(4-fluoro-1H-1,3-benzodiazol-2-yl)-5-(1H-indol-5-yl)pyridin-4-yl]-3-methylpyrrolidin-3-amine] is higher in EC50: 10 to 100 nM for the first, 100 to 1000 nM for the second.

`CC1(N)CCN(c2c(-c3cccc(-n4cccn4)c3)cncc2-c2nc3cccc(F)c3[nH]2)C1` (stereo not drawn) [Compound 2-16, 1-[3-(4-fluoro-1H-1,3-benzodiazol-2-yl)-5-[3-(1H-pyrazol-1-yl)phenyl]pyridin-4-yl]-3-methylpyrrolidin-3-amine] and `CC1(N)CCN(c2c(-c3cccc(-n4ccnc4)c3)cncc2-c2nc3cccc(F)c3[nH]2)C1` (stereo not drawn) [Compound 2-53, 1-[3-(4-fluoro-1H-1,3-benzodiazol-2-yl)-5-[3-(1H-imidazol-1-yl)phenyl]pyridin-4-yl]-3-methylpyrrolidin-3-amine] fall in the same range of EC50: 10 to 100 nM for the first, 10 to 100 nM for the second.

`CC1(N)CCN(c2c(-c3cccc(N4CCOC4=O)c3)cncc2-c2nc3cccc(F)c3[nH]2)C1` (stereo not drawn) [Compound 2-17, 3-{3-[4-(3-amino-3-methylpyrrolidin-1-yl)-5-(4-fluoro-1H-1,3-benzodiazol-2-yl)pyridin-3-yl]phenyl}-1,3-oxazolidin-2-one] and `CNC(=O)c1cccc(-c2cncc(-c3nc4cccc(F)c4[nH]3)c2N2CCC(C)(N)C2)c1` (stereo not drawn) [Compound 2-19, 3-[4-(3-amino-3-methylpyrrolidin-1-yl)-5-(4-fluoro-1H-1,3-benzodiazol-2-yl)pyridin-3-yl]-N-methylbenzamide] fall in the same range of EC50: 10 to 100 nM for the first, 10 to 100 nM for the second.

First: N[C@H]1CCN(c2c(-c3cc(O)cc(F)c3)cncc2-c2nc3cccc(F)c3[nH]2)C1 [Compound 2-25, 3-{4-[(3S)-3-aminopyrrolidin-1-yl]-5-(4-fluoro-1H-1,3-benzodiazol-2-yl)pyridin-3-yl}-5-fluorophenol]
Second: N#Cc1cc(-c2cncc(-c3nc4cccc(F)c4[nH]3)c2N2CC[C@H](N)C2)ccc1O [Compound 2-36, 5-{4-[(3S)-3-aminopyrrolidin-1-yl]-5-(4-fluoro-1H-1,3-benzodiazol-2-yl)pyridin-3-yl}-2-hydroxybenzonitrile]
The EC50 of the first is lower: 10 to 100 nM for the first, 100 to 1000 nM for the second. The first is the more potent here.

First: N#Cc1cccc(-c2cncc(-c3nc4c(F)cccc4[nH]3)c2N2CC(N)C(C(F)(F)F)C2)c1 (stereo not drawn) [Compound 2-33, 3-{4-[3-amino-4-(trifluoromethyl)pyrrolidin-1-yl]-5-(4-fluoro-1H-1,3-benzodiazol-2-yl)pyridin-3-yl}benzonitrile]
Second: N#Cc1ccc(-c2cncc(-c3nc4c(F)cccc4[nH]3)c2N2CC[C@H](N)C2)cc1F [Compound 2-35, 4-{4-[(3S)-3-aminopyrrolidin-1-yl]-5-(4-fluoro-1H-1,3-benzodiazol-2-yl)pyridin-3-yl}-2-fluorobenzonitrile]
The EC50 of the first is higher: 100 to 1000 nM for the first, 10 to 100 nM for the second.

First: N#Cc1c(F)cccc1-c1cncc(-c2nc3c(F)ccc(F)c3[nH]2)c1N1CC[C@H](N)C1 [Compound 2-40, 2-{4-[(3S)-3-aminopyrrolidin-1-yl]-5-(4,7-difluoro-1H-1,3-benzodiazol-2-yl)pyridin-3-yl}-6-fluorobenzonitrile]
Second: N#Cc1c(Cl)cccc1-c1cncc(-c2nc3cccc(F)c3[nH]2)c1N1CC[C@H](N)C1 [Compound 2-47, 2-{4-[(3S)-3-aminopyrrolidin-1-yl]-5-(4-fluoro-1H-1,3-benzodiazol-2-yl)pyridin-3-yl}-6-chlorobenzonitrile]
The EC50 of the first is higher: 10 to 100 nM for the first, less than 10 nM for the second.

`N#Cc1cccc(-c2cncc(-c3nc4c(F)c(F)c(F)c(F)c4[nH]3)c2N2CC[C@H](N)C2)c1` [Compound 2-41, 3-{4-[(3S)-3-aminopyrrolidin-1-yl]-5-(4,5,6,7-tetrafluoro-1H-1,3-benzodiazol-2-yl)pyridin-3-yl}benzonitrile] and `N#Cc1cc(-c2cncc(-c3nc4c(F)ccc(F)c4[nH]3)c2N2CC[C@H](N)C2)ccc1C(F)(F)F` [Compound 2-48, 5-{4-[(3S)-3-aminopyrrolidin-1-yl]-5-(4,7-difluoro-1H-1,3-benzodiazol-2-yl)pyridin-3-yl}-2-(trifluoromethyl)benzonitrile] fall in the same range of EC50: 10 to 100 nM for the first, 10 to 100 nM for the second.

`Cc1ccnc2nc(-c3cncc(-c4ccc(F)c(C#N)c4)c3N3CC[C@H](N)C3)[nH]c12` [Compound 2-50, 5-{4-[(3S)-3-aminopyrrolidin-1-yl]-5-{7-methyl-1H-imidazo[4,5-b]pyridin-2-yl}pyridin-3-yl}-2-fluorobenzonitrile] and `N[C@H]1CCN(c2c(-c3ccc4c(c3)OCC4)cncc2-c2nc3cccc(F)c3[nH]2)C1` [Compound 2-59, (3S)-1-[3-(2,3-dihydro-1-benzofuran-6-yl)-5-(4-fluoro-1H-1,3-benzodiazol-2-yl)pyridin-4-yl]pyrrolidin-3-amine] fall in the same range of EC50: 10 to 100 nM for the first, 10 to 100 nM for the second.

`CS(=O)(=O)c1cccc(-c2cncc(-c3nc4cccc(F)c4[nH]3)c2N2CC[C@H](N)C2)c1` [Compound 2-58, (3S)-1-[3-(4-fluoro-1H-1,3-benzodiazol-2-yl)-5-(3-methanesulfonylphenyl)pyridin-4-yl]pyrrolidin-3-amine] and `NC(=O)c1cc(-c2cncc(-c3nc4c(F)ccc(F)c4[nH]3)c2N2CC[C@H](N)C2)ccc1F` [Compound 2-61, 5-{4-[(3S)-3-aminopyrrolidin-1-yl]-5-(4,7-difluoro-1H-1,3-benzodiazol-2-yl)pyridin-3-yl}-2-fluorobenzamide] fall in the same range of EC50: 10 to 100 nM for the first, 10 to 100 nM for the second.

Same assay, conditions: SST5 over SST2, class symbols

With `COc1cccc(-c2cncc(-c3nc4cccc(F)c4[nH]3)c2N2CCC(C)(N)C2)c1` (stereo not drawn) [Compound 2-11, 1-[3-(4-fluoro-1H-1,3-benzodiazol-2-yl)-5-(3-methoxyphenyl)pyridin-4-yl]-3-methylpyrrolidin-3-amine] the “Fold selectivity for SST5 vs SST2” value was “+++ (+++=≥500)”.
